Tested on: Plasmodium falciparum
Assay: Antimalarial activity against chloroquine-sensitive Plasmodium falciparum NF54 infected in RBC after 72 hrs by [3H]hypoxanthine incorporation assay in presence of 50 % serum
Assay type: functional, organism-based

IC50 [nM] | SMILES
110 | CCCN(CCC)C(=O)c1cccc(C(=O)N[C@@H](Cc2ccccc2)[C@H](O)CNC(C)(C)c2ccc(F)cc2)c1
25 | CCCN(CCC)C(=O)c1cccc(C(=O)N[C@@H](Cc2ccccc2)[C@H](O)CNC(C)(C)c2cccc(OC)c2)c1
168 | CCCN(CCC)C(=O)c1cccc(C(=O)N[C@@H](Cc2ccccc2)[C@H](O)CNC2(c3ccccc3)CCCC2)c1
143 | CCCN(CCC)C(=O)c1cccc(C(=O)N[C@@H](Cc2ccccc2)[C@H](O)CNC(C)(C)c2ccc3ccccc3c2)c1
28 | CCCN(CCC)C(=O)c1cccc(C(=O)N[C@@H](Cc2ccccc2)[C@H](O)CNC2CCCCC2)c1

Tested on: Plasmodium falciparum
Assay: Antimalarial activity against chloroquine-sensitive Plasmodium falciparum NF54 infected in RBC after 72 hrs by [3H]hypoxanthine incorporation assay in presence of 0.5 % albumax
Assay type: functional, organism-based

IC50 [nM] | SMILES
11 | CCCN(CCC)C(=O)c1cccc(C(=O)N[C@@H](Cc2ccccc2)[C@H](O)CNC2Cc3ccccc3C2)c1
> 500 | COCCCC(=O)N[C@@H](Cc1ccccc1)[C@H](O)CNC(C)(C)c1ccccc1
24 | CCCN(CCC)C(=O)c1cccc(C(=O)N[C@@H](Cc2ccccc2)[C@H](O)CNC(C)(C)c2ccc(F)cc2)c1
< 7.8 | CCCN(CCC)C(=O)c1cccc(C(=O)N[C@@H](Cc2ccccc2)[C@H](O)CNC(C)(C)c2cccc(OC)c2)c1
162 | CC(=O)N1CCN(c2ccc(C(=O)N[C@@H](Cc3ccccc3)[C@H](O)CNC(C)(C)c3ccccc3)cc2)CC1
12 | CCCN(CCC)C(=O)c1cccc(C(=O)N[C@@H](Cc2ccccc2)[C@H](O)CNC2(c3ccccc3)CCCC2)c1
45 | CCCN(CCC)C(=O)c1cccc(C(=O)N[C@@H](Cc2ccccc2)[C@H](O)CNC(C)(C)c2ccc3ccccc3c2)c1
349 | CC(C)(NC[C@@H](O)[C@H](Cc1ccccc1)NC(=O)c1ccc(Cl)cc1)c1ccccc1
14 | CCCN(CCC)C(=O)c1cccc(C(=O)N[C@@H](Cc2ccccc2)[C@H](O)CNC2CCCCC2)c1
> 500 | Cc1cc(C(=O)N[C@@H](Cc2ccccc2)[C@H](O)CNC(C)(C)c2ccccc2)nn1C
> 500 | CC(C)(NC[C@@H](O)[C@H](Cc1ccccc1)NC(=O)c1ccncc1)c1ccccc1
> 500 | CC(C)(NC[C@@H](O)[C@H](Cc1ccccc1)NC(=O)c1cccc2ncccc12)c1ccccc1
48 | CCCN(CCC)C(=O)c1cccc(C(=O)N[C@@H](Cc2ccccc2)[C@H](O)CNC2CCc3ccccc32)c1 (some centres not stated)
146 | CC(C)(NC[C@@H](O)[C@H](Cc1ccccc1)NC(=O)c1ccc2cc[nH]c2c1)c1ccccc1
> 500 | CCCN(CCC)C(=O)c1cccc(C(=O)N[C@@H](Cc2ccccc2)[C@H](O)CN2CCN(C(C)=O)CC2)c1
349 | COc1cccc(C(=O)N[C@@H](Cc2ccccc2)[C@H](O)CNC(C)(C)c2ccccc2)c1

IC50 [nM] | SMILES
> 500 | CCCN(CCC)C(=O)c1cccc(C(=O)N[C@@H](Cc2ccccc2)[C@H](O)CN2CCN(Cc3ccccc3)CC2)c1
186 | CCCN(CCC)C(=O)c1cccc(C(=O)N[C@@H](Cc2ccccc2)[C@H](O)CNCCc2ccccc2)c1
44 | CC(=O)Nc1cccc(C(=O)N[C@@H](Cc2ccccc2)[C@H](O)CNC(C)(C)c2ccccc2)c1
> 500 | CC(C)(NC[C@@H](O)[C@H](Cc1ccccc1)NC(=O)Cc1ccccc1)c1ccccc1
444 | CC(C)(C)c1ccc(/C=C/C(=O)N[C@@H](Cc2ccccc2)[C@H](O)CNC(C)(C)c2ccccc2)cc1
37 | CC(C)(NC[C@@H](O)[C@H](Cc1ccccc1)NC(=O)c1cccc(-c2ccccc2)c1)c1ccccc1
> 500 | Cn1cc(C(=O)N[C@@H](Cc2ccccc2)[C@H](O)CNC(C)(C)c2ccccc2)c2ccccc21
> 500 | CC(C)(NC[C@@H](O)[C@H](Cc1ccccc1)NC(=O)C1CCCC1)c1ccccc1
102 | CN(C)c1cccc(C(=O)N[C@@H](Cc2ccccc2)[C@H](O)CNC(C)(C)c2ccccc2)c1
21 | CCCN(CCC)C(=O)c1cccc(C(=O)N[C@@H](Cc2ccccc2)[C@H](O)CN[C@@H](C)c2ccccc2)c1
> 500 | CCCN(CCC)C(=O)c1cccc(C(=O)N[C@@H](Cc2ccccc2)[C@H](O)CNCc2ccccc2)c1
> 500 | CC(=O)N[C@@H](Cc1ccccc1)[C@H](O)CNC(C)(C)c1ccccc1
> 500 | CN1CCCc2cc(C(=O)N[C@@H](Cc3ccccc3)[C@H](O)CNC(C)(C)c3ccccc3)ccc21
> 500 | Cn1cnc(C(=O)N[C@@H](Cc2ccccc2)[C@H](O)CNC(C)(C)c2ccccc2)c1
> 500 | CC(C)(NC[C@@H](O)[C@H](Cc1ccccc1)NC(=O)Cc1cccc2ccccc12)c1ccccc1
300 | CC(C)(NC[C@@H](O)[C@H](Cc1ccccc1)NC(=O)c1cccc(C(F)(F)F)c1)c1ccccc1

— ChEMBL document CHEMBL2331413, “Novel in vivo active anti-malarials based on a hydroxy-ethyl-amine scaffold” (Bioorg Med Chem Lett, 2013)
